Legend:
[1] = molecular target: Adrenergic receptor alpha (Rattus norvegicus) (UniProt P15823+P23944+P43140+P22086+P19328+P22909); test: Selectivity ratio is the antilog of the difference between pA2 values at alpha1- and alpha2- adrenoceptors
[2] = molecular target: T1, Adrenergic receptor alpha-2 (Rattus norvegicus, UniProt P22086+P19328+P22909); test: Tested for the alpha-2-adrenoceptor blocking activity by antagonism of clonidine-induced depression of the twitch responses of the field-stimulated prostatic portion of isolated rat vas deferens; assay type: functional, tissue-based
T1 sequence (P22086 whole entry): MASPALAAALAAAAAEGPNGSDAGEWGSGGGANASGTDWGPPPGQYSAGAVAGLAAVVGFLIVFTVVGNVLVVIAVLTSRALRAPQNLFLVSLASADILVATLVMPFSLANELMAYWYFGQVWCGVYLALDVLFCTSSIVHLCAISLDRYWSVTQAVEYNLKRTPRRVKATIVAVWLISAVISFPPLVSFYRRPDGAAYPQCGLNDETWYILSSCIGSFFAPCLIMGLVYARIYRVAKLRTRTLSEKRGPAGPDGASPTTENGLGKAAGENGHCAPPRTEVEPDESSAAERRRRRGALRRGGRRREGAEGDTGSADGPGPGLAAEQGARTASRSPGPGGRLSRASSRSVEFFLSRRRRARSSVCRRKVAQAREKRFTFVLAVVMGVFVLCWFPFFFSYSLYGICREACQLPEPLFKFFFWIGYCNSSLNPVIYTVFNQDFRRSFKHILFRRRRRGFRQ
T1 sequence (P19328 whole entry): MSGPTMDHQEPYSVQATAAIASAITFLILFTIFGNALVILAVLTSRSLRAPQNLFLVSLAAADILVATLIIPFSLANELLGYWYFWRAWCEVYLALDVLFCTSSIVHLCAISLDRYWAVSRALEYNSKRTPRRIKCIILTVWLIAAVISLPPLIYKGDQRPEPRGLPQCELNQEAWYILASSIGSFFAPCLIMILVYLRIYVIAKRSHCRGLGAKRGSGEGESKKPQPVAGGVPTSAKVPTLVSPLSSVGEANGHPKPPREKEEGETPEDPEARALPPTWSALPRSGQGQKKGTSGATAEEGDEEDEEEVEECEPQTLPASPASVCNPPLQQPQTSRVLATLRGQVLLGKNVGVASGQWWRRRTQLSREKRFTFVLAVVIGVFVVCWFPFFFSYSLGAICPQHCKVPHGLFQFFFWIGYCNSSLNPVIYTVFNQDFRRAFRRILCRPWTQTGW
T1 sequence (P22909 whole entry): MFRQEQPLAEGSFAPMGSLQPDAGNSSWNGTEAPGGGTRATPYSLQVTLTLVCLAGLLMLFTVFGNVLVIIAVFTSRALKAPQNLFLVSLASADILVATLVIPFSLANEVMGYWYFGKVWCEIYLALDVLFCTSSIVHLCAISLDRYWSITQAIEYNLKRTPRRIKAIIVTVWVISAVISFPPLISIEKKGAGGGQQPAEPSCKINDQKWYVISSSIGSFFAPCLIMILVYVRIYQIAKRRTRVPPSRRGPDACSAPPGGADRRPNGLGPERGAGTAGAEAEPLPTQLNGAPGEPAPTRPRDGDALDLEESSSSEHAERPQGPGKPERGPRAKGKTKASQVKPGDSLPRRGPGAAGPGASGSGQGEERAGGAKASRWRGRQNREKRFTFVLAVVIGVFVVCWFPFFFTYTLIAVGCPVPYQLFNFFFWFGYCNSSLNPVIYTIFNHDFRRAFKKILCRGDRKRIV

[3] = molecular target: T2, Adrenergic receptor alpha-1 (Rattus norvegicus, UniProt P15823+P23944+P43140); test: Ex vivo alpha-1-adrenoceptor blocking activity by antagonism of (-)-norepinephrine -induced contractions of the epididymal portion of isolated rat vas deferens.; assay type: functional
T2 sequence (P15823 whole entry): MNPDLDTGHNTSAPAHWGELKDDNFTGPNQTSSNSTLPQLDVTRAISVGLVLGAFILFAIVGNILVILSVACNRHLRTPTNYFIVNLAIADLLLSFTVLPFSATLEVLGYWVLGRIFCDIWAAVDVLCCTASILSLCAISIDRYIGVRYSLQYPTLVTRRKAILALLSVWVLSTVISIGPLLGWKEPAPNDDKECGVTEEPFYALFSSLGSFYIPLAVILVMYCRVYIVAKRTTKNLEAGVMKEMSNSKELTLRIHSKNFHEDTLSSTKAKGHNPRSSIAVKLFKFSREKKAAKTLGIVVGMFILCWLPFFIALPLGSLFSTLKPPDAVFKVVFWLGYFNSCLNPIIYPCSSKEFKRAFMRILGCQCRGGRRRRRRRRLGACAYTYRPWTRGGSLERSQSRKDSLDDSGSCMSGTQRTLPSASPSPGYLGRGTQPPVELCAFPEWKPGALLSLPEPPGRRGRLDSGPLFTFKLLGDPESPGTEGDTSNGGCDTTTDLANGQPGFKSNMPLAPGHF
T2 sequence (P23944 whole entry): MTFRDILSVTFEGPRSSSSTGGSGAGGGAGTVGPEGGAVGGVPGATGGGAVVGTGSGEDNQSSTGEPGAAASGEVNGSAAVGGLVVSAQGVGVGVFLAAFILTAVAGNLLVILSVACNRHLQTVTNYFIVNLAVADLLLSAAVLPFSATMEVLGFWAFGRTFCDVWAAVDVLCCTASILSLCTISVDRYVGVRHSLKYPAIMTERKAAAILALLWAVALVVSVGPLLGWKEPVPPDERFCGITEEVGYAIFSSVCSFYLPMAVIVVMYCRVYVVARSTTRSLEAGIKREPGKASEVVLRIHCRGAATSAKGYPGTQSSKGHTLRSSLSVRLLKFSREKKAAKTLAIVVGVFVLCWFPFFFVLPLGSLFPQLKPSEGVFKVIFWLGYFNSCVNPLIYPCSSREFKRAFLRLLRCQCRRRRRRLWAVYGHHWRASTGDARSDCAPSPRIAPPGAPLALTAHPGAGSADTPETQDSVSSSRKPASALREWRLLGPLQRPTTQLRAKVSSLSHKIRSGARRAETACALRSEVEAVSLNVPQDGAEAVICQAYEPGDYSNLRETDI
T2 sequence (P43140 whole entry): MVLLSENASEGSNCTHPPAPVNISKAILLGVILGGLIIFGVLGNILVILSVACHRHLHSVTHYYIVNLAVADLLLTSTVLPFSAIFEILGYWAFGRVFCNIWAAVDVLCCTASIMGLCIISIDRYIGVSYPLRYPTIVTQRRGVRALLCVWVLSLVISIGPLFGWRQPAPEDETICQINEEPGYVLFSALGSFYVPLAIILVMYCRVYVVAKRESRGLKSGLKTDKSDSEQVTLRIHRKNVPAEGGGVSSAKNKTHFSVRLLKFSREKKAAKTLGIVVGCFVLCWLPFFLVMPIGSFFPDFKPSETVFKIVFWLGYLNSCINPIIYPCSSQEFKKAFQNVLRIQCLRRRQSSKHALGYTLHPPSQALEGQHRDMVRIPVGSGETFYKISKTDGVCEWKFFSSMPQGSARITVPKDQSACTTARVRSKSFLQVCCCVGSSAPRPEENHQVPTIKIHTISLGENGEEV

[4] = molecular target: T1, Adrenergic receptor alpha-2; test: Tested for the alpha-2-adrenoceptor blocking activity by antagonism of clonidine-induced depression of the twitch responses of the field-stimulated prostatic portion of isolated rat vas deferens; at concentration 30 uM; assay type: functional
[5] = molecular target: T1, Adrenergic receptor alpha-2; test: Tested for the alpha-2-adrenoceptor blocking activity by antagonism of clonidine-induced depression of the twitch responses of the field-stimulated prostatic portion of isolated rat vas deferens; inactive uM; assay type: functional
[6] = molecular target: T1, Adrenergic receptor alpha-2; test: Tested for the alpha-2-adrenoceptor blocking activity by antagonism of clonidine-induced depression of the twitch responses of the field-stimulated prostatic portion of isolated rat vas deferens (inactive up to 30 uM); assay type: functional, tissue-based

Row | Ratio [1] | pA2 [2] | pA2 [3] | pA2 [4] | pA2 [5] | pA2 [6] | SMILES
1 | 30 | 6.46 | 7.94 |  |  |  | COc1cccc(OC)c1OCCNC[C@H]1Oc2ccccc2O[C@@H]1C
2 | 210 |  | 7.09 | 4.76 |  |  | COc1cccc(OC)c1OCCNC[C@H]1Oc2ccccc2O[C@H]1c1ccc(Cl)cc1
3 | 2 | 5.76 | 5.94 |  |  |  | COc1cccc(OC)c1OCCNC[C@H]1Oc2ccccc2O[C@H]1C(C)C
4 | > 500 |  | 7.23 |  | < 4.52 |  | CCc1ccc([C@@H]2Oc3ccccc3O[C@@H]2CNCCOc2c(OC)cccc2OC)cc1
5 | 1000 |  | 7.84 | 4.82 |  |  | COc1cccc(OC)c1OCCNC[C@H]1Oc2ccccc2O[C@@H]1c1ccc(O)cc1
6 | 73 |  | 7.1 | 5.24 |  |  | COc1cccc(OC)c1OCCNC[C@H]1Oc2ccccc2O[C@H]1c1ccc(C)cc1
7 | > 14000 |  | 8.67 |  | < 4.52 |  | COc1ccc([C@H]2Oc3ccccc3O[C@@H]2CNCCOc2c(OC)cccc2OC)cc1
8 | 2600 | 4.87 | 8.12 |  |  |  | COc1cccc(OC)c1OCCNC[C@H]1Oc2ccccc2O[C@@H]1c1ccc(OC(C)=O)cc1
9 | > 50 |  | 6.2 |  |  | < 4.52 | COc1cccc(OC)c1OCCNC[C@H]1Oc2ccccc2O[C@H]1C1CCCCC1
10 | > 2000 |  | 7.82 |  | < 4.52 |  | CCc1ccc([C@H]2Oc3ccccc3O[C@@H]2CNCCOc2c(OC)cccc2OC)cc1
11 | 21000 | 4.37 | 8.69 |  |  |  | COc1cccc(OC)c1OCCNC[C@H]1Oc2ccccc2O[C@@H]1c1ccc(C)cc1
12 | > 40 |  | 6.09 |  |  | < 4.52 | COc1cccc(OC)c1OCCNC[C@H]1Oc2ccccc2O[C@@H]1C1CCCCC1
13 | 4 | 5.94 | 6.57 |  |  |  | COc1cccc(OC)c1OCCNC[C@H]1Oc2ccccc2O[C@@H]1C(C)C
14 | 16000 | 4.18 | 8.39 |  |  |  | COc1cccc(OC)c1OCCNC[C@H]1Oc2ccccc2O[C@@H]1c1ccccc1
15 | 1000 |  | 8.15 | 5.17 |  |  | COc1cccc(OC)c1OCCNC[C@H]1Oc2ccccc2O[C@@H]1c1ccc(Cl)cc1
16 | 740 | 6.39 | 9.26 |  |  |  | COc1cccc(OC)c1OCCNCC1COc2ccccc2O1 (stereo unspecified)
17 | 630 | 5.7 | 8.5 |  |  |  | COc1cccc(OC)c1OCCNC[C@H]1Oc2ccccc2O[C@H]1C
